Tests used:
[1] = ABTS assay (radical scavenging); conditions: 50% reduction of initial ABTS radical absorbance, 6 min; 95% confidence limits in brackets
Protocol: An ABTS assay was performed following the procedure described by Lavorgna et al. 2019[66]. The cationic ABTS radical (ABTS^+) was generated by oxidizing ABTS (7 mM) with potassium persulfate (140 mM K2S2O8), and the mixture was incubated for 12–16 h in the dark. The ABTS^+ working solution was diluted to an absorbance of […] OD at 734 nm. […] Distilled water was used for the blank, Trolox was used for the standard control, and methanol was used for the solvent control.
The results are expressed as the median effective concentration (EC50). Furthermore, Trolox equivalent antioxidant capacity (TEAC) values were calculated following the procedure used by Shimamura end colleagues[68]:5 TEAC=EC50Trolox/EC50sample
(§1) All results from five independent experiments are expressed as the IC50 or EC50 as determined by analysis with Prism 5 software (GraphPad Inc., San Diego, CA, USA) and nonlinear regression (log agonist vs. normalized response-variable slope) with a 95% confidence range. Lowest observed adverse effect concentrations (LOAECs) were calculated by one-way ANOVA and Dunnett’s comparison test. Differences compared to the controls were considered significant as follows: *p < 0.05, **p < 0.001 and ***p < 0.0001.

[2] = DPPH assay (radical scavenging); conditions: 50% reduction of initial DPPH radical absorbance, 30 min; 95% confidence limits in brackets
Protocol: DPPH assay was performed following the protocol described by Brand-Williams et al.[69]. DPPH^⋅ was dissolved in methanol, generating a purple solution (101.43 µM). […] Furthermore, 940 μL of methanol and 60 μL of distilled water were used for the blank. Trolox was used as the standard control, and methanol was used as the solvent control.
The results were expressed as the median effective concentration of sample able to reduce the initial absorbance of the DPPH radical (EC50). Furthermore, TEAC values were calculated in line with Shimamura end colleagues[68] as previously reported.
as §1

For Cc1c(C)c2c(c(C)c1O)CCC(C)(C(=O)O)O2 (centres unmarked) [TROLOX, 6-Hydroxy-2,5,7,8-tetramethylchromane 2-carboxylic acid, reference compound], which EC50 [1] is on record?
Its EC50 is 111 µM.

What about the EC50 [2] of the same compound?
The EC50 was 327 µM.
